# Source: paper PMC8117003, “Pharmacokinetic Profile and Oral Bioavailability of Diosgenin, Charantin, and Hydroxychalcone From a Polyherbal Formulation” (Frontiers in Pharmacology, 2021)
# Several values for one entry are separate records, joined by “and”; a condition that tells them apart may be missing. Equal values may be shown once. Read-outs that look alike come from different tables or passages of the source.
# What was measured:
# [1] = Stability of marker compounds (bioanalytical HPTLC, quality control samples); type: in vitro ADME, rat; conditions: for Freeze thaw stability / Short-term room temperature stability: rat plasma
# Procedure: Sample stability was determined by analyzing samples for quality control for analyte’s stock stability in solvent, refrigerator stock solution stability, freeze and thaw stability, and bench top stability. The stability experiments were carried out to evaluate the degradations of the marker compounds under different experimental conditions. […] As per the acceptance criteria, % ratio (Stability/comparison) should be within 85–115%; from the above results, it was concluded that all the marker compounds were within the acceptance criteria for stability study Table 7.
# [2] = Pharmacokinetics and absolute bioavailability of pure marker compounds after single oral and i.v. dose; type: in vivo, male Wistar rats; conditions: for MRT: MRT (mean residence time); for half-life: t 1/2 (plasma half-life); for k el: plasma, read-out: Kel (elimination rate constant) (converted); for k el / Kel (elimination rate constant): rat plasma
# Procedure: Plasma concentrations of active marker compounds were determined using validated high-performance thin layer chromatography (HPTLC) with the UV detection method.
# The plasma samples (150 µl) were deproteinized by adding mixture of methanol: dichloromethane (1:1), followed by vortex mixing at 3000 rpm for 5 min. The supernatant was separated and further extracted with about 1.5 ml of ethyl acetate by mixing on vortex mixer at 3000 rpm for 10 min. The ethyl acetate layer was then collected and evaporated to dryness, followed by reconstitution with mobile phase (200 µl) containing chloroform: glacial acetic acid: methanol: water ((4.0:3.0:2.0:1.0) v/v and 100 µl was applied on a HPTLC plate. The optimized HPTLC conditions for development and quantification of the constituents is given in Table 2.
# Absolute bioavailabilities of marker compounds viz. diosgenin, charantin, and hydroxychalcone were determined in male Wistar rats. The animals weighing 300–350 gm were fasted overnight before the dosing with free access to drinking water throughout the experimental period. For the purpose of dosing all the three marker compounds viz, diosgenin, charantin, and hydroxychalcone were suspended in water to make the dose of 15 mg/kg per oral to be administrated to the groups of […]. The animals were divided into two groups with six animals in each group. The first group received the marker compounds in the dose of 1.5 mg/kg i.v. via lateral tail vein, while the second group received the marker compounds in the dose of 15 mg/kg p.o. The rats were anesthetized using ether and blood samples were collected through puncturing the retro-orbital plexus at 0, 0.17, 0.5, 1, 2, 4, 6, 12, and 24 h time points. Blood samples were centrifuged to separate plasma and stored at −20°C until bioanalysis.
# Non-compartmental analysis of data was performed using statistical moment theory. The peak plasma concentration (Cmax) and the corresponding time (Tmax) were directly obtained from the raw data.
# The area under the plasma concentration vs. time curve upto the last quantifiable point, AUC(0-t), was calculated by the linear and log-linear trapezoidal rule summation: AUC(0−t) =∑C0+Ct/2× Tt− T0.
# The AUC(0-t) was extrapolated to infinity (i.e., […]) by adding the quotient of Clast/Kel, AUC(t−∞) = Clast/Kel,
# Kel was calculated by the linear regression of the log-transformed concentrations of the last three data points in the terminal phase. Kel = −slope × 2.303.
# The half-life of the elimination phase was obtained from using the relationship, t 1/2 = 0.693/Kel.
# Clearance was calculated using the relationship Cl = Vd × Kel
# Apparent volume of distribution was calculated using relationship Vd = Dose Administered/Plasma concentration.
# Absolute oral bioavailability (F) was calculated using relationship F = {[AUC (oral)/AUC (iv)] × [Dose (iv)/Dose (oral)]} × 100.
# [3] = male, Wistar, rat, in vivo, iv, 1.5 mg/kg
# [4] = male, Wistar, rat, in vivo, po, 15 mg/kg
# [5] = pure marker, oral single dose 15 mg/kg, 15 mg/kg
compound,measurement,setting,value
C[C@@H]1CC[C@@]2(OC1)O[C@H]1C[C@H]3[C@@H]4CC=C5C[C@@H](O)CC[C@]5(C)[C@H]4CC[C@]3(C)[C@H]1[C@@H]2C [Diosgenin],Refrigerator standard stock solution stability,[1]; 0.4 µg/ml,91.73 ± 0.46%
same,Room temperature standard stock solution stability,[1]; 0.4 µg/ml,85.18 ± 0.45%
same,Refrigerator standard stock solution stability,[1]; 0.8 µg/ml,90.24 ± 1.13%
same,Room temperature standard stock solution stability,[1]; 0.8 µg/ml,84.86 ± 1.23%
same,Refrigerator standard stock solution stability,[1]; 1.2 µg/ml,89.56 ± 2.21%
same,Room temperature standard stock solution stability,[1]; 1.2 µg/ml,85.03 ± 2.16%
same,Degradation in plasma,"[1]; plasma, under different experimental conditions",no significant degradation
same,Freeze thaw stability,[1]; 0.4 µg/ml,87.06%
same,Short-term room temperature stability,[1]; 0.4 µg/ml,98.64%
same,Freeze thaw stability,[1]; 0.8 µg/ml,94.52%
same,Short-term room temperature stability,[1]; 0.8 µg/ml,97.90%
same,Freeze thaw stability,[1]; 1.2 µg/ml,97.86%
same,Short-term room temperature stability,[1]; 1.2 µg/ml,98.25%
same,bioavailability,"[2]; male, Wistar, rat, in vivo",9 ± 0.2%
same,AUC 0-∞,[2]; [3],4.9575 ± 0.44 µg·h/mL
same,Cl (drug clearance),[2]; [3],0.2221 ± 0.05 mL/h/kg
same,Cmax,[2]; [3],0.6122 ± 0.1 µg/mL
same,MRT (mean residence time),[2]; [3],9.9420 ± 0.90 h
same,Vd (apparent volume of distribution),[2]; [3],2.5397 ± 0.57 mL/kg
same,t 1/2 (plasma half-life),[2]; [3],7.9300 ± 0.37 h
same,AUC(0-inf),[2]; [3],4470 ng·h/mL
same,clearance,"[2]; male, Wistar, rat, in vivo, iv, 1.5 mg/kg, Cl (drug clearance)",3.67 mL/min/kg
same,Cmax,"[2]; male, Wistar, rat, in vivo, iv, 1.5 mg/kg, Cmax",0.57 µg/mL
same,MRT,[2]; [3],8.2 h
same,Vd,"[2]; male, Wistar, rat, in vivo, iv, 1.5 mg/kg, Vd (apparent volume of distribution)",2.5 L/kg
same,half-life,[2]; [3],454 min
same,AUC 0-∞,[2]; [4],4.4753 ± 0.06 µg·h/mL
same,Cl (drug clearance),[2]; [4],2.5143 ± 0.09 mL/h/kg
same,Cmax,[2]; [4],0.5773 ± 0.012 µg/mL
same,MRT (mean residence time),[2]; [4],8.2008 ± 0.15 h
same,Tmax,[2]; [4],1 h
same,t 1/2 (plasma half-life),[2]; [4],7.5638 ± 0.21 h
same,AUC(0-inf),[2]; [4],4950 ng·h/mL
same,Cmax,"[2]; male, Wistar, rat, in vivo, po, 15 mg/kg, Cmax",0.61 µg/mL
same,MRT,[2]; [4],9.94 h
same,half-life,[2]; [4],476 min
same,k el,"[2]; male, Wistar, rat, iv, 1.5 mg/kg, pure marker, IV single dose 1.5 mg/kg",2.5e-05 s⁻¹
same,k el,"[2]; male, Wistar, rat, po, 15 mg/kg, pure marker, oral single dose 15 mg/kg",2.22e-05 s⁻¹
same,AUMC 0-∞,"[2]; pure marker, IV single dose 1.5 mg/kg",17.3937 ± 2.10 µg.h^2/ml
same,Kel (elimination rate constant),"[2]; pure marker, IV single dose 1.5 mg/kg, 1.5 mg/kg",0.0875 ± 0.004 h⁻¹
same,AUMC 0-∞,"[2]; pure marker, oral single dose 15 mg/kg",36.700 ± 0.77 µg.h^2/ml
same,Kel (elimination rate constant),[2]; [5],0.0917 ± 0.003 h⁻¹
same,Ka (rate of absorption),[2]; [5],1.1 h⁻¹ and 1.1 ± 0.10 h⁻¹
Charantin,Degradation in plasma,[1],no significant degradation
same,Absolute bioavailability,"[2]; rat, in vivo",8.18 ± 0.36%
same,AUMC 0-∞,"[2]; rat, in vivo, iv, 1.5 mg/kg",182.9438 ± 1.74 µg.h^2/ml
same,AUMC 0-∞,"[2]; rat, in vivo, po, 15 mg/kg",176.7245 ± 1.83 µg.h^2/ml
same,Cl (drug clearance),"[2]; rat, in vivo, po, 15 mg/kg",5.9268 ± 0.31 mL/h/kg
same,Tmax,"[2]; rat, in vivo, po, 15 mg/kg",6 h
